Columns and labels:
[1] = molecular target: T1, Avi-KRAS G12D (1-169) GppNHp/RAF1 RBD-3xFLAG (52-151) (Homo sapiens, UniProt P01116, G12D); assay: Raf1-KRAS G12D-GppNHP disruption HTRF assay (Biological Example 1); type: binding
T1 construct: Avi-KRAS G12D (1-169)
How it was run: (§1)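 First, protein mix in Tris pH 7.5 buffer with NaCl, MgCl2, BSA, Tween and 10% DMSO is incubated 1 h at room temperature. Next, reagent mix is added and incubated a further 1 h at room temperature. Finally, HTRF is read and activity normalized to DMSO.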

[2] = molecular target: T2, Avi-KRAS G12R (1-169) GppNHp/RAF1 RBD-3xFLAG (52-151) (Homo sapiens, UniProt P01116, G12R); assay: Raf1-KRAS G12R-GppNHP disruption HTRF assay (Biological Example 1); type: binding
T2 construct: Avi-KRAS G12R (1-169)
How it was run: as §1

[3] = molecular target: T3, Avi-KRAS G12V (1-169) GppNHp/RAF1 RBD-3xFLAG (52-151) (Homo sapiens, UniProt P01116, G12V); assay: Raf1-KRAS G12V-GppNHP disruption HTRF assay (Biological Example 1); type: binding
T3 construct: Avi-KRAS G12V (1-169)
How it was run: as §1

SW620 cells (KRAS G12V) = assay: Cell-based pERK HTRF assay in SW620 cell (Biological Example 4); conditions: Homo sapiens, SW-620, SW620 (KRAS G12V) cells, pERK HTRF
How it was run: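 This assay measures inhibition of ERK phosphorylation downstream of KRAS G12V in intact SW620 cells. Compounds are applied for 4 h over nine half-log concentrations starting at 1 μM, and pERK is quantified by HTRF.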

GP2d cells (KRAS G12D) = assay: Cell-based pERK HTRF assay in GP2d cell (Biological Example 2); conditions: GP2d, GP2d (KRAS G12D) cells, pERK HTRF
How it was run: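 60 min compound, 0.25% DMSO, 9-pt half-log curve from 1 μM or 100 nM; DMEM/10% FBS.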

[4] = molecular target: T4, Avi-KRAS WT (1-169) GppNHp/RAF1 RBD-3xFLAG (52-151) (Homo sapiens, UniProt P01116); assay: Raf1-KRAS WT-GppNHP disruption HTRF assay (Biological Example 1); type: binding
T4 construct: Avi-KRAS WT (1-169)
How it was run: as §1

[5] = KRAS G12D, GppNHp-loaded, class symbols
[6] = KRAS G12R, GppNHp-loaded, class symbols
[7] = KRAS G12V, GppNHp-loaded, class symbols
[8] = KRAS WT, GppNHp-loaded, class symbols
[9] = KRAS G12D, GppNHp-loaded, Table 11
[10] = KRAS G12R, GppNHp-loaded, Table 11
[11] = KRAS G12V, GppNHp-loaded, Table 11
[12] = KRAS WT, GppNHp-loaded, Table 11

T4 sequence (P01116 1-169 isoform P01116-2): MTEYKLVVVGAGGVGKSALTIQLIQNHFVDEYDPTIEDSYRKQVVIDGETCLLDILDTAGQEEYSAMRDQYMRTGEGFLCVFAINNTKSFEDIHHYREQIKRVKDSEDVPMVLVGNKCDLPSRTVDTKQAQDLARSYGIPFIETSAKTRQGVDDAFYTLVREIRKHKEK
T3 sequence (P01116 1-169 isoform P01116-2 G12V): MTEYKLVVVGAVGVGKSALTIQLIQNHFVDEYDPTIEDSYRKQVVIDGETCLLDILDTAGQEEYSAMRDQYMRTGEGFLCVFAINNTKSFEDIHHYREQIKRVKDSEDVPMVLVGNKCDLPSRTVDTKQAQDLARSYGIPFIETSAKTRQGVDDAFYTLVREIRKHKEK
T1 sequence (P01116 1-169 isoform P01116-2 G12D): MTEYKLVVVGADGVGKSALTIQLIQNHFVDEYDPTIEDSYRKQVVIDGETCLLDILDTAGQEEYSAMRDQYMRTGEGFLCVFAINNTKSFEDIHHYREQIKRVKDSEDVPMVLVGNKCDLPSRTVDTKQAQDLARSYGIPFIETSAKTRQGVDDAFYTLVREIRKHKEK
T2 sequence (P01116 1-169 isoform P01116-2 G12R): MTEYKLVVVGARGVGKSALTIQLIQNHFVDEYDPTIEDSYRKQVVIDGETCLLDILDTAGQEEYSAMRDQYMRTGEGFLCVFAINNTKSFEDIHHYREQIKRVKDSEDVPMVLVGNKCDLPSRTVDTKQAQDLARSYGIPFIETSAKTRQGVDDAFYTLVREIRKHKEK

| IC50 [1, 5] [µM] | IC50 [2, 6] [µM] | IC50 [3, 7] [µM] | IC50 (SW620 cells (KRAS G12V); class symbols) [µM] | IC50 (GP2d cells (KRAS G12D); class symbols) [µM] | IC50 [4, 8] [µM] | IC50 ([1]; KRAS G12D-GppNHp/RAF1 RBD HTRF) [µM] | IC50 ([2]; KRAS G12R-GppNHp/RAF1 RBD HTRF) [µM] | IC50 ([3]; KRAS G12V-GppNHp/RAF1 RBD HTRF) [µM] | IC50 (SW620 cells (KRAS G12V)) [µM] | IC50 (GP2d cells (KRAS G12D)) [µM] | IC50 ([4]; KRAS WT-GppNHp/RAF1 RBD HTRF) [µM] | IC50 [1, 9] [µM] | IC50 [2, 10] [µM] | IC50 [3, 11] [µM] | IC50 [4, 12] [µM] | Structure (SMILES) |
| --- | --- | --- | --- | --- | --- | --- | --- | --- | --- | --- | --- | --- | --- | --- | --- | --- |
|  |  |  |  |  |  |  |  |  | 0.1 to 1 | < 0.1 |  | 0.1 to 1 | 1 to 10 | 1 to 10 | 0.1 to 1 | CC(=O)N1C[C@@H]2CCN(c3nc(OC[C@@]45CCCN4C[C@H](F)C5)nc4c(F)c(-c5ccc(F)c6sc(N)c(C#N)c56)c(C(F)(F)F)cc34)[C@@H]2C1 [Compound 211] |
|  |  |  |  |  |  | 0.1 to 1 | 0.1 to 1 | 0.1 to 1 | 0.1 to 1 | < 0.1 | 0.1 to 1 |  |  |  |  | CC(=O)N1CCC(N(C)c2nc(OC[C@@]34CCCN3C[C@H](F)C4)nc3c(F)c(-c4ccc(F)c5sc(N)c(C#N)c45)c(C(F)(F)F)cc23)CC1 [Compound 296] |
| 1 to 10 | 0.1 to 1 | 0.1 to 1 | < 0.1 | < 0.1 | 1 to 10 |  |  |  |  |  |  |  |  |  |  | CC1c2cc(C(=O)N(C)C)nn2CCN1c1nc(OCC23CCCN2CC(F)C3)nc2c(F)c(-c3ccc(F)c4sc(N)c(C#N)c34)c(C(F)(F)F)cc12 (stereo not drawn) [Compound 568] |
|  |  |  |  |  |  | 1 to 10 | 1 to 10 | 1 to 10 | < 0.1 | < 0.1 | 1 to 10 |  |  |  |  | CC(=O)N1C[C@H]2CCCN(c3nc(OC[C@@]45CCCN4C[C@H](F)C5)nc4c(F)c(-c5ccc(F)c6sc(N)c(C#N)c56)c(C(F)(F)F)cc34)[C@H]2C1 [Compound 453] |
|  |  |  |  |  |  | 0.1 to 1 | 0.1 to 1 | 0.1 to 1 | < 0.1 | < 0.1 | 0.1 to 1 |  |  |  |  | CCN(c1nc(OC[C@@]23CCCN2C[C@H](F)C3)nc2c(F)c(-c3ccc(F)c4sc(N)c(C#N)c34)c(C(F)(F)F)cc12)[C@H]1C[C@@H](C)N(C(=O)N(C)C)C1 (atropisomer, axis not shown) [Compound 558] |

Continued, molecule first:

| Structure (SMILES) | IC50 [1, 5] [µM] | IC50 [2, 6] [µM] | IC50 [3, 7] [µM] | IC50 (SW620 cells (KRAS G12V); class symbols) [µM] | IC50 (GP2d cells (KRAS G12D); class symbols) [µM] | IC50 [4, 8] [µM] | IC50 ([1]; KRAS G12D-GppNHp/RAF1 RBD HTRF) [µM] | IC50 ([2]; KRAS G12R-GppNHp/RAF1 RBD HTRF) [µM] | IC50 ([3]; KRAS G12V-GppNHp/RAF1 RBD HTRF) [µM] | IC50 (SW620 cells (KRAS G12V)) [µM] | IC50 (GP2d cells (KRAS G12D)) [µM] | IC50 ([4]; KRAS WT-GppNHp/RAF1 RBD HTRF) [µM] | IC50 [1, 9] [µM] | IC50 [2, 10] [µM] | IC50 [3, 11] [µM] | IC50 [4, 12] [µM] |
| --- | --- | --- | --- | --- | --- | --- | --- | --- | --- | --- | --- | --- | --- | --- | --- | --- |
| CCN(c1nc(OCC23CCCN2CC(F)C3)nc2c(F)c(-c3ccc(F)c4sc(N)c(C#N)c34)c(C(F)(F)F)cc12)C1CCN(C(=O)c2ncccn2)C1 (stereo not drawn) [Compound 712] | < 0.1 | < 0.1 | < 0.1 | < 0.1 | < 0.1 | < 0.1 |  |  |  |  |  |  |  |  |  |  |
| CCN(c1nc(OC[C@@]23CCCN2C[C@H](F)C3)nc2c(F)c(-c3ccc(F)c4sc(N)c(C#N)c34)c(C(F)(F)F)cc12)[C@@H]1C[C@H](C)N(C(=O)OC)C1 (atropisomer, axis not shown) [Compound 544] |  |  |  |  |  |  | 0.1 to 1 | 0.1 to 1 | 0.1 to 1 | < 0.1 | < 0.1 | 0.1 to 1 |  |  |  |  |
| N#Cc1c(N)sc2c(F)ccc(-c3c(C(F)(F)F)cc4c(N5CCCS(=O)(=O)CC5)nc(OC[C@@]56CCCN5C[C@H](F)C6)nc4c3F)c12 [Compound 263] |  |  |  |  |  |  |  |  |  | < 0.1 | < 0.1 |  | < 0.1 | < 0.1 | 0.1 to 1 | < 0.1 |
| N#Cc1c(N)sc2c(F)ccc(-c3c(C(F)(F)F)cc4c(N5C6COCC5C6)nc(OC[C@@]56CCCN5C[C@H](F)C6)nc4c3F)c12 [Compound 202] |  |  |  |  |  |  |  |  |  | < 0.1 | < 0.1 |  | 0.1 to 1 | 0.1 to 1 | 0.1 to 1 | 0.1 to 1 |
| CCN(c1nc(OC[C@@]23CCCN2C[C@H](F)C3)nc2c(F)c(-c3ccc(F)c4sc(N)c(C#N)c34)c(C(F)(F)F)cc12)[C@@H]1C[C@@H](C)N(C(=O)C2COC2)C1 (atropisomer, axis not shown) [Compound 629] | 0.1 to 1 | 0.1 to 1 | 0.1 to 1 | < 0.1 | < 0.1 | 0.1 to 1 |  |  |  |  |  |  |  |  |  |  |
| CN(c1nc(OC[C@@]23CCCN2C[C@H](F)C3)nc2c(F)c(-c3ccc(F)c4sc(N)c(C#N)c34)c(C(F)(F)F)cc12)[C@@H]1CCCOC1 [Compound 274] |  |  |  |  |  |  |  |  |  | < 0.1 | < 0.1 |  | 0.1 to 1 | 0.1 to 1 | 0.1 to 1 | 0.1 to 1 |
| CC(=O)N(C)CCN(C)c1nc(OC[C@@]23CCCN2C[C@H](F)C3)nc2c(F)c(-c3ccc(F)c4sc(N)c(C#N)c34)c(C(F)(F)F)cc12 [Compound 255] |  |  |  |  |  |  |  |  |  | < 0.1 | < 0.1 |  | 0.1 to 1 | 0.1 to 1 | 0.1 to 1 | 0.1 to 1 |

From patent publication US20260042764A1, “COMPOSITIONS AND METHODS FOR INHIBITION OF KRAS” (TheRas, Inc., priority 2022, published 2026)
